Results reported in patent US20150313825A1, “METHODS AND COMPOSITIONS FOR LOCALLY INCREASING BODY FAT” (TOPOKINE THERAPEUTICS, INC., priority 2012, published 2015).
Like-named read-outs stand apart in the source and are kept apart here. Marks after values point to notes of the source that are not given here.

Columns and labels:
subcutaneous fat [1] = experiment: Randomized controlled trial in mice, daily percutaneous application to right flank for 24 days (Example 1); format: in vivo, C57BL/6J mice; settings: for Mean weight gain relative to vehicle / Mean weight gain / Local increase in subcutaneous fat (treated right flank vs untreated left flank): 5 mM in Lipoderm; for Mean weight gain relative to vehicle / Mean weight gain: 0.1 cc to flank daily, Day 0 until Day 24; for Mean weight gain: high-fat diet; for Local increase in subcutaneous fat (treated right flank vs untreated left flank): following 24 days of therapy
Method: The arms were as follows: vehicle (Lipoderm®), a thiazolidinedione (pioglitazone), harmine, an orexigenic compound (megestrol acetate), and efavirenz. Each compound was combined in the percutaneous Lipoderm® formulation at an equimolar concentration (5 mM). The Lipoderm® vehicle is adapted to deliver the respective compound percutaneously, i.e., across the skin and into subcutaneous fat. The formulations were applied daily to the right flank of each animal, whereas the left flank was used as an untreated control.
A randomized controlled trial was conducted on C57BL/6J. Male mice approximately six weeks old were prospectively randomized into groups and assigned to the following treatment conditions (n=5 animals per group):
Animals were shaved and depilated over the flanks at the start of the study.
Animals were kept in identical conditions and fed ab libitum with a standardized high-fat diet (70% kcal fat). Animals were weighed three times weekly. Following 24 consecutive days of treatment, mice were sacrificed and samples of skin and adjacent fat from the treated flanks are taken for histologic examination.

subcutaneous fat [2] = experiment: Clinical application for augmentation of the buttocks (Example 9); format: in vivo, human; settings: 10 mg/ml in Lipoderm daily, after 6 months
Method: The following description exemplifies a clinical application of percutaneous administration of an orexigenic pregnane derivative for augmentation of the buttocks. A female or male patient wishes to undergo a buttocks augmentation procedure but is concerned about the risks of surgery. The physician prescribes a daily application of megestrol acetate (for example, 10 mg/ml in Lipoderm®) to the buttocks.

subcutaneous fat [3] = experiment: Mouse study of percutaneous rosiglitazone, methods of Example 1 (Example 2); settings: rosiglitazone 0.1% or 0.3% by weight
[4] = oral, 4 mg/d, humans; cited from earlier work
subcutaneous fat [5] = settings: for Rosiglitazone Increase over Placebo (fat thickness), MEAN: 42 days, p<0.0001
Method: A prospective controlled trial was performed in 4 Gottingen minipigs (2 males, 2 females). Hair on the back was clipped. […] An equivalent Vehicle Treatment Area was marked on the left side of the animal, such that the two treatment areas were anatomically equivalent. […] After 42 days of treatment, plasma pharmacokinetics (PK) was assessed on all animals by Liquid Chromatography/Tandem Mass Spectrometry. Necropsy was done and samples of skin, subcutaneous fat, and muscle were collected en bloc from each treatment area in a controlled fashion. […] Table 5 presents the thicknesses of subcutaneous fat on each of six treated and control (vehicle) locations, by animal. […] Table 6 compares plasma PK following percutaneous administration (present study) with plasma PK following oral administration in humans.

| Structure (SMILES) | Mean weight gain relative to vehicle (subcutaneous fat [1]) [%] | Mean weight gain (subcutaneous fat [1]) [g] | Local increase in subcutaneous fat (treated right flank vs untreated left flank) (subcutaneous fat [1]) | other results |
| --- | --- | --- | --- | --- |
| O=C1Nc2ccc(Cl)cc2[C@@](C#CC2CC2)(C(F)(F)F)O1 [Efavirenz] | 92 | 6.1 | did not exhibit any increase in fat or asymmetry | – |
| COc1ccc2c(c1)[nH]c1c(C)nccc12 [Harmine] | 102 | 6.8 | did not exhibit any increase in fat or asymmetry | – |
| CC(=O)O[C@]1(C(C)=O)CC[C@H]2[C@@H]3C=C(C)C4=CC(=O)CC[C@]4(C)[C@H]3CC[C@@]21C [Megestrol acetate] | 120 | 8.0 | local increases in subcutaneous fat | Relative skin fold thickness of the left and right flanks (subcutaneous fat [1]; Day 24, treated vs untreated flank): asymmetric, with thicker skin folds on the treated flanks; Skin fold thickness, right (treated) flank (subcutaneous fat [1]; representative mouse, 24 days of treatment, untreated left flank about 2 mm): about 4 mm; Clinical size of buttocks (subcutaneous fat [2]): the buttocks appear clinically larger |
| CCc1ccc(CCOc2ccc(CC3SC(=O)NC3=O)cc2)nc1 (stereo not drawn) [Pioglitazone] | 112 | 7.4 | – | – |
| CN(CCOc1ccc(CC2SC(=O)NC2=O)cc1)c1ccccn1 (stereo not drawn) [Rosiglitazone] | – | – | – | Adverse effects (subcutaneous fat [3]): No adverse effects were noted; Peak plasma level (Cmax) [4]: 355 ng/mL; Plasma exposure (AUC0-24) [4]: 2542 ng·h/mL; Fat Thickness (mm), Rosiglitazone Treatment Area, MEAN (subcutaneous fat [5]; mean of 24 locations, vehicle mean 4.39, p < .0001 (paired t-test)): 6.29* mm; Rosiglitazone Increase over Placebo (fat thickness), MEAN (subcutaneous fat [5]): 48%; Rosiglitazone Increase over Placebo (fat thickness), MEAN (subcutaneous fat [5]; listed as rosiglitazone): 48%; Tolerability, skin irritation and clinical observations (subcutaneous fat [5]; minipig, in vivo): well tolerated, with no evidence of skin irritation or other clinical observations |
